The text below walks through data of patent US6403357B1, “Thermostable D-hydantoinase and the application thereof” (National Science Council, priority 2000, dated 2002).

Read-outs that look alike come from different tables or passages of the source.

Holding throughout (format): biochemical, Bacillus circulans
Data set [1] concerns D-hydantoinase. As to the kind of experiment: Substrate selection of D-hydantoinase. The note with it: substrate 10 mM; for Conversion to the corresponding N-carbamoyl amino acid / Specific activity: 50° C., 10 min; for Relative activity: percentage based on activity for dihydrouracil. How it is done:
10 mM Dihydrouracil, hydantoin, D,L-p-HPH, 5-[2-(methylthio)ethyl]hydantoin, and D,L-homophenylalanyl-hydantoin were used as substrates, respectively. The vector pQE-bcidht in E. coli NovaBlue, crude extracts thereof or the purified D-hydantoinase of the present invention was reacted with each substrate at 50° C. for 10 min. Enzyme activity was then measured.

The subject of data set [2] is D-hydantoinase. The experiment in a line: Effects of chelator on D-hydantoinase activity. To be noted: chelator 10 μM, incubation for 10 hours. Here is the method: The vector pQE-bcidht in E. coli NovaBlue, crude extracts thereof or the purified D-hydantoinase of the present invention was mixed with hydrophilic chelator, EDTA, and hydrophobic chelator, 2,6-dipicolinic acid, at 10 μM concentration, respectively. The mixture was incubated for 0-12 hours, and the enzyme activity was measured.

Data set [3] concerns D-hydantoinase. As to the kind of experiment: Effects of metal ions on D-hydantoinase activity.
The test system of data set [4] is D-hydantoinase. As to the kind of experiment: Effects of H2O2, NaCl and NH4Cl on D-hydantoinase activity. To be noted: 10 min; for Effect on enzyme activity: concentration as high as 0.8 M, room temperature. Here is the method:
The vector pQE-bcidht in E. coli NovaBlue, crude extracts thereof or the purified D-hydantoinase of the present invention was incubated at 25° C. for 10 min. Afterwards, the catalase was added to the solution to remove residual H2O2, and then the enzyme activity was measured. In addition, various concentrations of NaCl and NH4Cl were added to the solution containing D-hydantoinase. The solution was incubated at room temperature for 10 min, and the enzyme activity was measured.

Data set [5] concerns D-hydantoinase. As to the kind of experiment: Reaction pH of D-hydantoinase. The note with it: 10 mM D,L-p-HPH, 50° C., 10 min. How it is done:
The substrate D,L-p-HPH was dissolved in various pH buffers at the final concentration of 10 mM. The vector pQE-bcidht in E. coli NovaBlue, crude extracts thereof or the purified D-hydantoinase of the present invention, were added to each buffer containing substrate, and incubated at 50° C. for 10 min. The specific activity of the enzyme was then measured.

For data set [6], the system named is D-hydantoinase. The experiment in a line: Reaction temperature of D-hydantoinase. To be noted: 500 μM Mn2+, 10 mM D,L-p-HPH, pH 8.0, 10 min. How it is done:
The vector pQE-bcidht in E. coli NovaBlue, crude extracts thereof or the purified D-hydantoinase of the present invention (containing 500 μM Mn^2+), was added to 10 mM substrate of D,L-p-HPH (dissolved in 50 mM Tris-HCl (pH 8.0)). The mixture was incubated at various temperature (30-90° C.) for 10 min. The specific activity of the enzyme was then measured.

The subject of data set [7] is D-hydantoinase. As to the kind of experiment: Thermostability of D-hydantoinase. To be noted: after 60 days incubation at 50° C. Here is the method:
The vector pQE-bcidht in E. coli NovaBlue, crude extracts thereof or the purified D-hydantoinase of the present invention (47 unit/mg; containing 500 μM Mn^2+), was incubated at 50° C. in a thermostat water bath. The specific activity of the enzyme was measured at various time intervals.

For data set [8], the system named is D-hydantoinase. As to the kind of experiment: Conditions of converting D,L-p-HPH by D-hydantoinase. To be noted: enzyme pre-mixed with Mn2+ and incubated in an ice solution for 4 days. Here is the method: The reaction pH of D-hydantoinase is between 5 and 10. […] The substrate solubility and enzyme activity can be elevated by grinding D,L-p-HPH to powder form, dissolving the powdered substrate in 50 mM Tris-HCl (pH 8.0), followed by stirring the solution at room temperature for 2 hours. In addition, A suitable amount of DMSO can also enhance the solubility of substrate D,L-p-HPH, and elevate the conversion efficiency from D,L-p-HPH to D-p-HPG by the D-hydantoinase of the present invention.

[9] abbreviates: ion 500 μM, 15 min at room temperature, 10 mM D,L-p-HPH in 50 mM Tris-HCl pH 8.0.
Where [10] appears, read: ion 500 μM, percentage based on activity without adding ions.

On to `O=C1NC(=O)C(CCc2ccccc2)N1` (racemic) [D,L-Homophenylalanyl-hydantoin, D,L-homophenylalanyl-hydantoin], for which, in the data set with D-hydantoinase [1], the “Conversion to the corresponding N-carbamoyl amino acid” value (“Conversion” for short) is recorded as “capable of converting”, the Specific activity was 45.64 unit/mg and the Relative activity was 84%.
Consider `O=C1NC(=O)C(c2ccc(O)cc2)N1` (racemic) [D,L-p-Hydroxyphenylhydantoin, D,L-p-hydroxyphenylhydantoin], for which, in the data set on D-hydantoinase [1], the “Conversion” value is recorded as “capable of converting”, the Specific activity is on record as 47.43 unit/mg and the Relative activity is 87%.
With `O=C(O)c1cccc(C(=O)O)n1` [2,6-dipicolinic acid], the Retained enzyme activity in the data set on D-hydantoinase [2] was found to be 40%.
Regarding `CSCCC1NC(=O)NC1=O` (stereo not shown) [5-[2-(Methylthio)ethyl]-hydantoin, 5-[2-(methylthio)ethyl]hydantoin], in the data set with D-hydantoinase [1], the “Conversion” value is listed as “capable of converting”, the Specific activity was determined as 21.48 unit/mg and the Relative activity is on record as 40%.
Take `[Ca+2].[Cl-].[Cl-]` [CaCl2]: the Specific activity in the data set on D-hydantoinase [3] (setting [9]) is recorded as 2.53 unit/mg. Also, the Relative activity in the data set on D-hydantoinase [3] (setting [10]) was determined as 88%.
`[Cl-].[Cl-].[Co+2]` [CoCl2]: in the data set on D-hydantoinase [3], the “Effect on enzyme activity” value is given as “enhance the enzyme activity”; the “Increase of enzyme activity, times original activity” value (from here on “Increase of enzyme activity”) is 4.5 times; the Relative activity is 252%. In the data set on D-hydantoinase [3] (pH 8), the Specific activity came out at 7.25 unit/mg.
As to `[Cl][Cu][Cl]` [CuCl2], in the data set on D-hydantoinase [3] (ion 500 μM), the “Inhibition of D-hydantoinase activity” value was found to be 22%. The Specific activity in the data set with D-hydantoinase [3] (setting [9]) worked out at 2.26 unit/mg. For the same molecule, the Relative activity in the data set on D-hydantoinase [3] (setting [10]) came to 78%.
Take `O=C1CCNC(=O)N1` [Dihydrouracil]: in the data set on D-hydantoinase [1], the Specific activity is on record as 54.29 unit/mg and the Relative activity is 100%. Also, the Specific activity in the data set with D-hydantoinase [1] (listed as dihydrouracil) amounted to 54 unit/mg.
Molecule `O=C(O)CN(CCN(CC(=O)O)CC(=O)O)CC(=O)O` [EDTA] returned a Retained enzyme activity in the data set with D-hydantoinase [2] of 70%.
Take `[Cl][Fe]([Cl])[Cl]` [FeCl3]: in the data set with D-hydantoinase [3] (setting [9]), the Specific activity was 2.52 unit/mg. In addition, in the data set with D-hydantoinase [3] (setting [10]), the Relative activity was found to be 87.5%.
As to `O=S(=O)([O-])[O-].[Fe+2]` [FeSO2], the Specific activity in the data set on D-hydantoinase [3] (setting [9]) came to 2.52 unit/mg. Besides, the Relative activity in the data set on D-hydantoinase [3] (setting [10]) was determined as 87.5%.
As for `OO` [H2O2], the Retained enzyme activity with D-hydantoinase [4] (0.8 M H2O2, 25° C.) is on record as 85%.
For the molecule `O=C1CNC(=O)N1` [Hydantoin], in the data set on D-hydantoinase [1], the “Conversion” value was “capable of converting”, the Specific activity was 41.43 unit/mg and the Relative activity is listed as 76%.
Molecule `[Cl-].[Cl-].[Mg+2]` [MgCl2] yielded a Specific activity in the data set with D-hydantoinase [3] (setting [9]) of 2.62 unit/mg. Also, the Relative activity in the data set on D-hydantoinase [3] (setting [10]) was 91%.
The matching figures for `O=S(=O)([O-])[O-].[Mg+2]` [MgSO4]: 2.69 unit/mg and 94%.
In the case of `[Cl][Mn][Cl]` [MnCl2], the “Increase of enzyme activity” value in the data set with D-hydantoinase [3] (500 μM Mn2+) amounted to 7.7 times. In addition, the “Effect on enzyme activity” value in the data set with D-hydantoinase [3] (divalent metal ion added) is listed as “enhance the enzyme activity”. The molecule also registered a Specific activity in the data set with D-hydantoinase [3] (setting [9]) of 22.25 unit/mg. Also, the Relative activity with D-hydantoinase [3] (setting [10]) is 773%.
As for `Cl.N` [NH4Cl], the “Effect on enzyme activity” value in the data set with D-hydantoinase [4] was “not affected”.
Still for that read-out and setting: the value for `[Cl-].[Na+]` [NaCl] was “not affected”.
On to `O=S(=O)([O-])[O-].[Ni+2]` [NiSO4], for which, in the data set on D-hydantoinase [3] (100 μM Ni2+), the “Increase of enzyme activity” value was 1.3 times. The “Effect on enzyme activity” value in the data set on D-hydantoinase [3] (divalent metal ion added) is reported as “enhance the enzyme activity”. The molecule also displayed a Specific activity in the data set with D-hydantoinase [3] (setting [9]) of 4.00 unit/mg. For the same molecule, the Relative activity with D-hydantoinase [3] (setting [10]) is 139%.
In the case of `O=S(=O)([O-])[O-].[Zn+2]` [ZnSO4], the “Inhibition of D-hydantoinase activity” value in the data set with D-hydantoinase [3] (ion 500 μM) is 50%. Further, the Specific activity in the data set on D-hydantoinase [3] (setting [9]) is given as 1.44 unit/mg. Besides, in the data set with D-hydantoinase [3] (setting [10]), the Relative activity stood at 50%.

B1: D-hydantoinase: thermostable D-hydantoinase from Bacillus circulans, amino acid sequence SEQ ID NO:1, 461 amino acids, expressed in E. coli (protein)
chain: MKKWIRNGTVVTASDTYQADVLIDGEKVVAIGSDLQATDAEVIDATGYYLLPGGIDPHTHLDMPFGGTVTSDNFFTGTKAAAFGGTTSIVDFCLTSKGESLHSAIATWHEKARGKAVIDYGFHLMVSDANDHVLEELESVVNNEGITSLKVFMAYKNVLMADDETLFKTLIRAKELGALVQVHAENGDVLDYLTKQALAEGNTDPIYHAYTRPPEAEGEATGRAIALTALADAQLYVVHVSCADAVRRIAEAREKGWNVYGETCPQYLVLDITALEKPDFEGAKYVWSPPLREKWNQDVLWSALKNGILQTVGSDHCPFNFSGQKELGRRDFTKIPNGGPIIEDRMTILFSEGVRKGKISLNQFVDITSTKVAKLFGMFPQKGTIAVGSDADIVLFDPTVQRTISVETHHMNVDYNPFEGMQVHGDVISVLSRGAFVVRNKQFVGHAGAGRYVKRSTFARP
In the case of B1, in the data set on D-hydantoinase [5] (pH 4.0), the “Enzyme activity” value is “loses its entire activity”. For the same molecule, the Highest specific activity in the data set on D-hydantoinase [5] (pH 8.5) came to 3.36 unit/mg; in the data set with D-hydantoinase [6] (60° C.), 28.32 unit/mg. In addition, the Specific activity in the data set on D-hydantoinase [6] (30° C.) was found to be 9.0 unit/mg; in the data set on D-hydantoinase [6] (90° C.), 4.26 unit/mg. The “Activity after long incubation” value in the data set on D-hydantoinase [7] is recorded as “retains activity”. The “Maximum specific activity for catalysis of D,L-p-HPH” value in the data set with D-hydantoinase [8] worked out at 47 unit/mg.
